Reference: DBAASP
In brackets after ≈: the same amount, converted by molar mass.

How the values were obtained:
Assay in all cases: ≥ marks a high value that may be exact or a test limit, other limits are often not marked, values filed in µg/mL are converted to µM
[1] = system: Candida albicans ATCC 20032
[2] = system: Staphylococcus aureus ATCC 25923
[3] = system: Bacillus subtilis ATCC 6633
[4] = system: Escherichia coli ATCC 25922
[5] = system: Escherichia coli W160-37
[6] = system: Klebsiella pneumoniae ATCC 700603
[7] = system: Acinetobacter baumannii ATCC 19606
[8] = system: Pseudomonas aeruginosa ATCC 27853
[9] = system: Escherichia coli DH5alpha
[10] = system: Bacillus subtilis 168
[11] = system: Bacillus subtilis ATCC 23857
[12] = system: Micrococcus luteus
[13] = system: Pseudomonas aeruginosa ATCC 15692
[14] = system: Saccharomyces cerevisiae
[15] = system: Staphylococcus aureus NCTC 8325
[16] = system: Staphylococcus aureus
[17] = system: Xanthomonas campestris pv. Vesicatoria 2133-2
[18] = system: Pseudomonas syringae pv. syringae EPS 94
[19] = system: Pseudomonas syringae pv. actinidiae Psa3700.1.1
[20] = system: Xanthomonas fragariae Xf349-9A
[21] = system: Xanthomonas arboricola pv. pruni CFBP 5563
[22] = system: Erwinia amylovora PMV 6076

SMILES	MIC [1] [µM]	MIC [2] [µM]	MIC [3] [µM]	MIC [4] [µM]	MIC [5] [µM]	further results
CC(C)C[C@@H]1NC(=O)[C@H](CO)NC(=O)[C@H](Cc2ccc(O)cc2)NC(=O)[C@H](CCC(=O)O)NC(=O)[C@H](Cc2ccccc2)NC(=O)[C@H](C)NC(=O)[C@H](Cc2ccccc2)NC(=O)[C@@H]2CSSC[C@@H](C(=O)N[C@H](C(=O)N3CCC[C@H]3C(=O)N[C@@H](CC(N)=O)C(=O)N[C@H](C(=O)N[C@@H](Cc3ccccc3)C(=O)O)[C@@H](C)O)C(C)C)NC(=O)[C@@H]3CSSC[C@H](NC(=O)CNC(=O)[C@H](Cc4c[nH]c5ccccc45)NC(=O)[C@@H](NC(=O)[C@H](C)NC(=O)[C@@H](N)Cc4ccccc4)C(C)C)C(=O)N[C@@H](C)C(=O)N[C@@H](CC(=O)O)C(=O)N[C@@H](Cc4ccc(O)cc4)C(=O)N[C@@H](CCCN=C(N)N)C(=O)NCC(=O)N[C@@H](Cc4ccc(O)cc4)C(=O)N[C@@H](CSSC[C@H](NC(=O)CNC(=O)[C@H](CCCCN)NC(=O)[C@@H]4CCCN4C(=O)CNC1=O)C(=O)N[C@@H]([C@@H](C)O)C(=O)N[C@@H](CCC(=O)O)C(=O)NCC(=O)N[C@@H](Cc1ccc(O)cc1)C(=O)N[C@@H](C(C)C)C(=O)N3)C(=O)N[C@@H](CCCN=C(N)N)C(=O)N[C@@H](C)C(=O)N[C@@H](C)C(=O)N2 [FAVWGCADYRGYCRAACFAFEYSLGPKGCTEGYVCCVPNTF]	≥ 44.2	14.4 (≈ 64.9 µg/mL)	29.8 (≈ 135 µg/mL)	35.3 (≈ 160 µg/mL)		
CC[C@H](C)[C@H](NC(=O)[C@H](CC(C)C)NC(=O)[C@H](C)NC(=O)[C@H](CC(C)C)NC(=O)[C@@H](N)Cc1ccccc1)C(=O)N[C@@H](CC(C)C)C(=O)N[C@@H](CCCN=C(N)N)C(=O)N[C@@H](CCCCN)C(=O)N[C@H](C(=O)N[C@H](C(=O)N[C@H](C(=O)N[C@@H](C)C(=O)N[C@@H](CC(C)C)C(N)=O)[C@@H](C)O)C(C)C)[C@@H](C)CC [FLALILRKIVTAL]					≥ 40.8	
CC[C@H](C)[C@H](NC(=O)[C@H](CCCCN)NC(=O)[C@H](CCCCN)NC(=O)[C@@H](NC(=O)[C@@H](NC(=O)[C@H](CCCCN)NC(=O)[C@H](CCCCN)NC(=O)[C@@H](NC(=O)[C@@H](NC(=O)[C@H](CCCCN)NC(=O)[C@H](CCCCN)NC(=O)[C@@H](NC(=O)[C@@H](NC(=O)[C@H](CCCCN)NC(=O)[C@H](CCCCN)NC(=O)[C@@H](NC(=O)[C@@H](NC(=O)CN)[C@@H](C)CC)[C@@H](C)CC)[C@@H](C)CC)[C@@H](C)CC)[C@@H](C)CC)[C@@H](C)CC)[C@@H](C)CC)[C@@H](C)CC)C(N)=O [GIIKKIIKKIIKKIIKKI]		4 (≈ 8.47 µg/mL)		8 (≈ 16.9 µg/mL)		MIC [6]: 8 µM (≈ 16.9 µg/mL); MIC [7]: 4 µM (≈ 8.47 µg/mL); MIC [8]: 4 µM (≈ 8.47 µg/mL); MIC [9]: 2 µM (≈ 4.24 µg/mL); MIC [10]: 0.5 µM (≈ 1.06 µg/mL); MIC [11]: 2 µM (≈ 4.24 µg/mL)
CC[C@H](C)[C@H](N)C(=O)N[C@@H](CC(C)C)C(=O)N1CCC[C@H]1C(=O)N[C@@H](CC(C)C)C(=O)N[C@@H](CCCCN)C(=O)N[C@@H](CC(C)C)C(=O)N1CCC[C@H]1C(=O)N[C@@H](Cc1c[nH]c2ccccc12)C(=O)N[C@@H](CC(C)C)C(=O)N1CCC[C@H]1C(=O)N[C@@H](CC(C)C)C(=O)N[C@@H](CCCN=C(N)N)C(=O)N[C@@H](CCCN=C(N)N)C(N)=O [ILPLKLPWLPLRR]					12.4 (≈ 20 µg/mL)	MIC [16]: 6.19 µM (≈ 9.99 µg/mL)
CC[C@H](C)[C@H](NC(=O)[C@H](Cc1c[nH]c2ccccc12)NC(=O)[C@H](CCCCN)NC(=O)[C@H](CC(C)C)NC(=O)[C@H](Cc1ccccc1)NC(=O)[C@H](CCCCN)NC(=O)[C@H](CC(C)C)NC(=O)[C@H](CC(C)C)NC(=O)[C@H](CCCCN)NC(=O)[C@@H]1CCCN1)C(=O)NCC(=O)O [PKLLKFLKWIG]					31 (≈ 41.6 µg/mL)	MIC [16]: 8 µM (≈ 10.7 µg/mL)
CSCC[C@H](NC(=O)CNC(=O)[C@@H](NC(=O)[C@H](CO)NC(=O)[C@H](Cc1ccccc1)NC(=O)[C@@H](NC(=O)[C@H](Cc1ccccc1)NC(=O)[C@H](Cc1ccc(O)cc1)NC(=O)[C@H](CO)NC(=O)[C@H](CCC(=O)O)NC(=O)[C@@H](N)[C@@H](C)O)C(C)C)C(C)C)C(N)=O [TESYFVFSVGM]						MIC [17]: ≥ 50 µM; MIC [18]: ≥ 50 µM; MIC [19]: 17.7 µM (≈ 22.4 µg/mL); MIC [20]: ≥ 50 µM; MIC [21]: 17.7 µM (≈ 22.4 µg/mL); MIC [22]: ≥ 50 µM

More lines, main results first:

MIC [1] [µM]	MIC [2] [µM]	MIC [3] [µM]	MIC [4] [µM]	MIC [5] [µM]	SMILES	further results
14.4 (≈ 37.5 µg/mL)	1.8 (≈ 4.7 µg/mL)	14.4 (≈ 37.5 µg/mL)	> 38.3		CC[C@H](C)[C@H](NC(=O)CN)C(=O)NCC(=O)NCC(=O)N[C@@H](C)C(=O)N[C@@H](CC(C)C)C(=O)N[C@@H](CC(C)C)C(=O)N[C@@H](CO)C(=O)N[C@H](C(=O)NCC(=O)N[C@@H](CCCCN)C(=O)N[C@@H](CC(C)C)C(=O)N[C@@H](C)C(=O)N[C@@H](CC(C)C)C(=O)N[C@@H](CCCCN)C(=O)NCC(=O)N[C@@H](CC(C)C)C(=O)N[C@@H](C)C(=O)N[C@@H](CC(N)=O)C(=O)N[C@H](C(=O)N[C@@H](CC(C)C)C(=O)N[C@@H](C)C(=O)N[C@@H](CC(=O)O)C(=O)N[C@@H](CCCCN)C(=O)N[C@@H](Cc1ccccc1)C(=O)N[C@@H](C)C(=O)N[C@@H](CC(N)=O)C(N)=O)C(C)C)C(C)C [GIGGALLSVGKLALKGLANVLADKFAN]	
	45.3 (≈ 116 µg/mL)		5.66 (≈ 14.5 µg/mL)		CC[C@H](C)[C@H](NC(=O)[C@H](C)NC(=O)[C@H](CCC(=O)O)NC(=O)[C@H](CC(C)C)NC(=O)CNC(=O)CNC(=O)[C@H](CCCCN)NC(=O)[C@H](C)NC(=O)[C@H](Cc1ccccc1)NC(=O)[C@H](CCCCN)NC(=O)[C@H](CCCCN)NC(=O)[C@H](CC(C)C)NC(=O)CNC(=O)CNC(=O)[C@H](CC(C)C)NC(=O)[C@@H](NC(=O)[C@@H](NC(=O)[C@H](CO)NC(=O)[C@H](Cc1c[nH]c2ccccc12)NC(=O)[C@@H](NC(=O)CN)C(C)C)[C@@H](C)O)C(C)C)C(=O)N[C@H](C(=O)N[C@@H](CC(N)=O)C(=O)N1CCC[C@H]1C(=O)N[C@@H](CCCCN)C(=O)O)C(C)C [GVWSTVLGGLKKFAKGGLEAIVNPK]	MIC [12]: 0.5 µM (≈ 1.29 µg/mL); MIC [13]: ≥ 32 µM; MIC [14]: ≥ 32 µM; MIC [15]: ≥ 100 µM
≥ 50.2	> 50.2	≥ 50.2	> 50.2		CC[C@H](C)[C@H](N)C(=O)N[C@@H](CC(C)C)C(=O)NCC(=O)N1CCC[C@H]1C(=O)N[C@H](C(=O)N[C@H](C(=O)N[C@@H](CO)C(=O)N[C@H](C(=O)N[C@H](C(=O)NCC(=O)N[C@@H](CC(N)=O)C(=O)N[C@H](C(=O)N[C@@H](CC(C)C)C(=O)NCC(=O)NCC(=O)N[C@@H](CC(C)C)C(=O)N[C@@H](CC(C)C)C(=O)N[C@@H](CCCCN)C(=O)N[C@@H](CC(N)=O)C(=O)N[C@@H](CC(C)C)C(N)=O)C(C)C)[C@@H](C)CC)[C@@H](C)O)[C@@H](C)CC)C(C)C [ILGPVISTIGNVLGGLLKNL]	
≥ 52.1	> 52.1	≥ 52.1	> 52.1		CC[C@H](C)[C@H](N)C(=O)N[C@@H](CO)C(=O)NCC(=O)N1CCC[C@H]1C(=O)N[C@H](C(=O)N[C@@H](CC(C)C)C(=O)NCC(=O)N[C@@H](CC(C)C)C(=O)N[C@H](C(=O)NCC(=O)N[C@@H](CC(N)=O)C(=O)N[C@@H](C)C(=O)N[C@@H](CC(C)C)C(=O)NCC(=O)NCC(=O)N[C@@H](CC(C)C)C(=O)N[C@H](C(=O)N[C@@H](CCCCN)C(=O)N[C@@H](CCCCN)C(=O)N[C@H](C(N)=O)[C@@H](C)CC)[C@@H](C)CC)C(C)C)C(C)C [ISGPVLGLVGNALGGLIKKI]	
